Results from patent publication US11478526B2, “Methods of reducing neuroinflammation or toxicity induced by amyloid beta (abeta) using glucocorticoid induced leucine zipper (GILZ) analog peptides” (INDIANA UNIVERSITY RESEARCH AND TECHNOLOGY CORPORATION, priority 2016, dated 2022).

Columns and labels:
[1] = system: LPS induced neuroinflammation; experiment: LPS induced neuroinflammation: real time PCR of brain tissue; type: in vivo, mouse; details: 25 mg/kg i.v. alternate days, day 7
Procedure: (§1) Animals and lipopolysaccharide induced neuroinflammation: Male C57/6J mice weighing 32 to 37 grams were housed five per cage at a temperature of 22±2° C. with 12 hour light/12 hour dark cycles with free access to laboratory food and water. Lipopolysaccharides (LPS) from Escherichia coli 026:B6, =10,000 EU/mg, purified by phenol extraction was purchased from Sigma (Sigma Aldrich, Mo., USA). The mice were randomly divided into seven groups: LPS, LPS+GA-1 or GA-2 or CP-1 or CP-2 or CP-3 or TAT. The LPS was administered intraperitoneally at […] in 100 μl of sterile saline followed by corn oil in the morning daily for six days. The GA or CP was administered intravenously at 25 mg/kg in 100 μl of sterile saline on alternate days. Additional control group included mice receiving saline alone. All animals were sacrificed on day 7.
Real time polymerase chain reaction. Total cellular RNA was isolated from each brain tissue using Qiagen kit (Invitrogen, Carlsbad, Calif.) following manufacturer's protocol and reverse transcribed using iScript cDNA synthesis kit (Biorad, Calif.). Equal amount of cDNA measured by the Nanodrop (ThermoFisher Scientific, Waltham, USA) was used for amplification of IL-1β, IL-12, CD14, BclXL and Bcl2. Real time PCR was performed using SYBR green/ROX qPCR master mix (SA Biosciences, Frederick, Md.) on the ABI Prism 7000 sequence detection system (Applied Biosystem, Foster City, Calif., USA). Each reaction contains 2×12.5 μl of master mix, 1 μl of 10 μM of primers and 50 ng of the cDNA, to a total volume of 25 μl. The thermal cycling conditions included an initial denaturation step at 50° C. for 2 min, 95° C. for 3 min, 39 cycles at 95° C. for 30 s, annealing temperature at 62° C. for 30 s and extension at 72° C. for 30 s.
The gene specific threshold cycle (Ct) for each sample (ΔCt) was corrected by subtracting the Ct for the housekeeping gene β-actin. Untreated controls were chosen as the reference samples. The ΔCt for all experimental samples was subtracted by the ΔCt for the control samples (ΔΔCt).The difference in each gene specific threshold between the sample from vehicle treated and GA or CP treated cells was determined to obtain the relative change in the specific mRNA. The magnitude of change in the mRNA was expressed as 2^−ΔΔCt. Each measurement of a sample was performed in duplicates.

[2] = system: LPS induced neuroinflammation; experiment: LPS induced neuroinflammation: immunohistochemistry of hippocampal gliosis; type: in vivo, mouse; details: 25 mg/kg intravenously on alternate days; for CD11b+p65+ glial cells in the hippocampus: day 7; for GFAP+ astroglial cells in the hippocampus / Iba1+ microglial cells in the hippocampus: day 7, vs control peptide or untreated
Procedure: as §1
Histology and immunohistochemistry: The mice were sacrificed on day 7 by intra-cardial perfusion of 25 ml of 0.9% saline. Brain from each mouse was removed, one half was immediately frozen and the other half fixed in 4% paraformaldehyde for 24 h and later in 10% neutral buffered formalin for additional 24 h. Fixed tissues were subsequently processed for paraffin embedding. Tissue sections (5μ) stained with Harris's haematoxylin and counterstained with eosin were assessed for inflammation.
Immunohistochemistry: Serial 5μ thick coronal sections of each brain specimen were immunostained for markers of microglial cells, astrocytes and NF-κB p65. Briefly, after deparaffinization and hydration sections were subjected to antigen retrieval by microwave incubation in 10 mM sodium citrate buffer (pH 6.0) followed by sequential incubation in 30% hydrogen peroxide and blocking buffer (Enzo biosciences,) to reduce non-specific binding. The sections were then stained with the following primary monoclonal antibodies from EMD Millipore Corporation, Temecula, Calif., USA: anti-Iba-1 (AIF1 clone: Cat. #MABN92) or anti-glial fibrillary acidic protein (GFAP) clone GA5 (Cat. #MAB3402, Millipore) or anti-CD11b (Cat. #MABF513) clone M1/70 or anti-NF-κB p65 subunit clone 12H11 (Cat. #MAB3026). For mono-staining of Iba-1 and GFAP, detection was with the use of IHC select immunoperoxidase secondary detection system (Millipore). The peroxidase conjugated streptavidin-biotin method was used and brown staining was considered positive. For dual staining of CD11b and NF-κB p65 detection was achieved using the […]® (mouse-HRP/rabbit-AP) IHC kit (Catalog #: ADI-950-100, ENZO Lifesciences, Farmingdale, N.Y., USA). For each marker, to confirm the specificity of the antibodies, a separate set of sections from each group were incubated with only the secondary antibodies, a condition in which no staining was present.
Quantitative analysis of staining intensity: Images of the IHC stained sections were captured using the NIKON Multiphoton microscope with attached DS Ri2 camera. Five areas encompassing the hippocampus of each brain section were analyzed using the ImageJ Software. The number and the relative optical density of Iba1+ and GFAP+ glial cells was determined using the multi-point tool and the IHC-tool box. A training for brown/red color was performed prior to measurement to define the threshold for positive selection. Regions of interest encompassing the hippocampus were identified in each section, and the corresponding images were quantified using integrated optical density, normalized to the background optical density. Measurement of pixel intensity was restricted to the DAB or AP stained pixels of cells within defined circularity. Five consecutive coronal sections were assessed for each mouse.

HFNC = experiment: Morphology of HFNC under inverted bright field microscope; type: cell-based, human
U373 cells = experiment: Annexin-V and propidium iodide apoptosis by flow cytometry; type: cell-based, human; details: score 1/0
Procedure: Detection apoptosis by flow cytometry: To further assess cell cytotoxicity, the apoptotic effects of individual GA or control peptide was evaluated by the Annexin-V and propidium iodide (PI) dual staining method (Annexin-V-Fluos staining kit, Roche Diagnostics, Mannheim, Germany). As opposed to apoptotic cells, necrotic cells with ruptured cell membrane take up PI, the DNA binding dye. Thus, cells which take up both fluorochromes are a mixture of apoptotic and necrotic cells, whereas cells that exclude PI but bind Annexin V are (early) apoptotic cells. U373 cells cultured with varying concentrations of individual GA or control peptide (0.5 μM to 50 μM) for 24 hours were centrifuged and suspended in 100 μl of Annexin V/PI labelling solution (20 μl each of Annexin-V-Fluos labelling reagent and PI in 1 ml of binding buffer) for 15 min at room temperature. After washing the cells were resuspended in PBS:1% paraformaldehyde and analyzed using a FACScan flow cytometer (BD Biosciences, San Jose, Calif.).

Aβ1-42 exposed HFB cells = experiment: Cytokines in culture medium of Aβ1-42 exposed HFB; type: cell-based, human; details: PGA at IC50 concentration

Row | Substance | relative expression of BCl2 in brain tissues [1] | relative expression of BclXL in brain tissues [1] | steady-state mRNA for IL-1β in brain tissues [1] | CD11b+p65+ glial cells in the hippocampus [2] | GFAP+ astroglial cells in the hippocampus [2] | Iba1+ microglial cells in the hippocampus [2] | morphology of HFNC (HFNC) | % apoptosis at LD50 (U373 cells) | AIL-1p concentration in culture supernatant (not shown) (Aβ1-42 exposed HFB cells) | AIL-6 concentration in culture supernatant (Aβ1-42 exposed HFB cells) | relative expression of CD14 mRNA in brain tissues [1]
1 | Ac-EPAPESPQV-NH2 [GA-2] | 1.9+/−0.9 | 0.25+/−0.4 | decreased levels | significantly reduced in number and intensity | reduced | reduced |  |  |  |  | 
2 | Ac-EPAPESPQV-NH2 [PGA-4] |  |  |  |  |  |  | did not affect the morphology | 1 (<25) | significantly lower | significantly lower | 
3 | Ac-EPAPLAPYG-NH2 [GA-1] | 1.25+/−0.5 | 0.32+/−0.15 | decreased levels | significantly reduced in number and intensity | reduced | reduced |  |  |  |  | 0.48+/−0.1
4 | Ac-EPAPLAPYG-NH2 [PGA-2] |  |  |  |  |  |  | did not affect the morphology | 1 (<25) | significantly lower | significantly lower | 
